From US8614230B2, “Derivatives of the aminated hydroxyquinoline class for treating cancers” (Biopharmed, priority 2007, dated 2013)
Where two headings read alike, the source gives them in different places.

Assays:
KB cells = experiment: Cytotoxicity / cell viability on KB cells (colony-forming assay); format: cell-based, human; details: for IC50: Homo sapiens, KB, read-out: Cytotoxicity on KB cells (IC50)
Protocol: Cancerous KB cells are also considered, to determine the cell viability (or survival rate). This cell viability is determined according to the teaching of Nicholson K. M. et al., British Journal of Cancer, 1999, 81, 423-430.
KB cells are human carcinoma cell lines, KB-3-1. These cells are maintained in a culture medium, “Dulbecco's modified Eagle's medium” (DMEM—Sigma), which contains 0.11 g/l of sodium pyruvate and 4.5 g/l of glucose, supplemented with 10% (v/v) fetal calf serum, penicillin (32 μg/ml) and streptomycin (50 μg/ml). The cells are cultured as monolayers and are incubated at 37° C. in a humid atmosphere (95% air/5% CO2).
(§1) The preceding KB cells are then incubated in 6- or 96-well plates in the presence of the test compounds of the invention, dissolved in dimethyl sulfoxide (DMSO). The content of surviving cells is measured by the “colony-forming assay” test, in which the cells are redistributed at a density of 100 to 300 cells per well in 24-well plates, for a period of 8 days, and are then stained with Leishman's reagent (0.2% in methanol). The colonies of more than 50 cells are counted visually under a microscope, the survival rate being expressed on the colonies formed in the presence of the compounds of the invention relative to cell colonies not treated with said compounds. The determination of the IC50 values (concentration of compounds in the reaction medium for which 50% of the tested tumor cells survived the treatment) enables comparison of the efficacy of these compounds.

U87/GFP cells [1] = experiment: Antiproliferative effect on U87/GFP cells (flash cytometry); format: cell-based, human
Protocol: For the U-87/GFP cells, the control of cell proliferation and migration in the presence of the compounds (I) of the invention is performed via a colorimetric method (MTS) and is performed according to known standard protocols. The methodologies implemented use flash cytometry (Trophos S.A., Marseilles, France). The flash cytometry technique involves fluorescence, which consists of irradiating a compound at a set wavelength and of recording the fluorescence emitted at another wavelength. This technique is performed with a flash cytometer and adapted for 96-well test plates. The excitation and emission wavelengths in the context of use of this fluorescence are located in the 485-495 nm range. The measured fluorescence expresses the amount of cells surviving after treatment with the compounds of the invention. The publications by Luby-Phelps K. et al., J. Histochemistry and Cytometry, 2003, 51, 271-274 and Modarai B. et al., Circulation, 2005, 111, 2645-2653 may be mentioned by way of reference for the above methods.
The cells of the U87/GFP lines are cultured in 96-well plates according to a standard methodology described by Bajetto et al., Neurochemistry International, 2006, 43, 31-38 in the presence of different concentrations of the compounds of the invention.
The cell proliferation is determined and quantified according to standard methods known to those skilled in the art. A 100% proliferation is attributed to the untreated cells and a percentage less than 100% is obtained when the same cells are treated with the compounds of the invention.
(§2) The cell proliferation and migration are determined by imaging using a flash cytometer (Trophos S.A., Marseilles, France), and the calculations are performed using the “Metamorph 4.6” imaging signal processing software (Molecular Devices, USA), the use of which, which is known in the field, makes it possible to determine the above two effects independently of each other.

U87/GFP cells [2] = experiment: Antimigratory effect on U87/GFP cells (scratch technique); format: cell-based, human
Protocol: The determination of the antimigratory activity of the compounds (I) of the invention on these same cell lines, cultured in MEM medium (Minimum Essential Medium) is performed via the “scratch” technique that consists in scratching a cell lawn using a micropipette cone. By comparison with these same cells not containing the compounds of the invention, the antimigratory effect is determined. A 100% migration is attributed to the untreated cells, whereas, as a function of the concentration of the compounds (I) of the invention, total stoppage of migration is determined by observation of the “scratch” remaining unfilled by the cell migration, by means of computer software.
as §2

HTC116 = experiment: Cytotoxicity IC50 on HTC116 cells; format: cell-based; details: Homo sapiens
Protocol: as §1
(§3) Table 4 presents the results of the IC50 (cytotoxicity) on different cell lines, according to the protocol described previously, obtained for compounds I14 and I20.

HTC15 = experiment: Cytotoxicity IC50 on HTC15 cells; format: cell-based; details: Homo sapiens
Protocol: as §1, §3

MCF7 = experiment: Cytotoxicity IC50 on MCF7 cells; format: cell-based; details: Homo sapiens
Protocol: as §1, §3

MCF7R = experiment: Cytotoxicity IC50 on MCF7R cells; format: cell-based; details: Homo sapiens
Protocol: as §1, §3

OV3 = experiment: Cytotoxicity IC50 on OV3 cells; format: cell-based; details: Homo sapiens
Protocol: as §1, §3

PC3 = experiment: Cytotoxicity IC50 on PC3 cells; format: cell-based; details: Homo sapiens, PC-3
Protocol: as §1, §3

A549 = experiment: Cytotoxicity IC50 on A549 cells; format: cell-based; details: Homo sapiens
Protocol: as §1, §3

SF268 = experiment: Cytotoxicity IC50 on SF268 cells; format: cell-based; details: Homo sapiens, SF-268
Protocol: as §1, §3

HL60 = experiment: Cytotoxicity IC50 on HL60 cells; format: cell-based; details: Homo sapiens, HL-60
Protocol: as §1, §3

K562 = experiment: Cytotoxicity IC50 on K562 cells; format: cell-based; details: Homo sapiens
Protocol: as §1, §3

HepG2 = experiment: Cytotoxicity IC50 on HepG2 cells; format: cell-based; details: Homo sapiens
Protocol: as §1, §3

caspases 3/7 = experiment: Activation of caspases 3/7 in HL60 cells; format: cell-based, human; details: 48 hours
Protocol: (§4) In this example, in order to show the role of compounds I14 and I20 in this effect, specific products were used: DEVD for caspases 3/7, IEDT for caspases 8, and LEHD for caspases 9. Moreover, colchicine was used as reference compound that induces this activity of caspases. I14 and I20 were tested at three concentrations: 1 μM, 0.1 μM and 0.01 μM.
(§5) The experiments were performed by placing I14 and I20 in contact with HL60 cells for 48 hours, according to the standard protocol described by Margolin et al., J. Biol. Chem. (1997), 272, p. 7223, using standard commercially available diagnostic kits (Calbiochem, USA).

caspases 8 = experiment: Activation of caspases 8 in HL60 cells; format: cell-based, human; details: 48 hours, 1 μM, 0.1 μM and 0.01 μM
Protocol: as §4, §5

caspases 9 = experiment: Activation of caspases 9 in HL60 cells; format: cell-based, human; details: 48 hours, 1 μM, 0.1 μM and 0.01 μM
Protocol: as §4, §5

For `Cc1ccc(CN(Cc2ccc(O)c3ncccc23)c2ccc(O)c3ncccc23)cc1` [I14, 5-(((8-hydroxyquinolin-5-yl)(4-methylbenzyl)amino)methyl)quinolin-8-ol], the IC50 (KB cells; first value of two experiments performed in parallel) was 2.6 nM, the IC50 (KB cells; second value of two experiments performed in parallel) was 1.4 nM and the “Cytotoxicity on KB cells (percentage inhibition of cell viability)” value (KB cells; at 1 μM, relative to reference without compound) was 90% at 1 μM. For the same compound, the inhibition at 0.5 µM (U87/GFP cells [1]; Homo sapiens, at 0.5 μM, read-out: Antiproliferative effect on U87/GFP cells: percentage inhibition) was 65%, the IC50 (U87/GFP cells [1]; concentration giving 65% inhibition of proliferation) was 500 nM and the inhibition at 0.5 µM (U87/GFP cells [2]; Homo sapiens, at 0.5 μM, read-out: Antimigratory effect on U87/GFP cells: percentage inhibition) was 40%. The IC50 (U87/GFP cells [2]; concentration giving 40% inhibition of migration) was 500 nM, the IC50 (HTC116) was 3.2 ± 1.2 nM and the IC50 (HTC15) was 6 ± 7.3 nM. It also gave an IC50 (MCF7) of 5.4 ± 0.9 nM, an IC50 (MCF7R) of 37.3 ± 28 nM and an IC50 (OV3) of 8 ± 0.4 nM. It also gave an IC50 (PC3) of 343 ± 125 nM, an IC50 (A549) of 4.3 ± 0.1 nM and an IC50 (SF268) of 178 ± 83 nM. It also gave an IC50 (HL60) of 32.7 ± 6.6 nM, an IC50 (K562) of 40.8 ± 22 nM and an IC50 (HepG2) of 52.1 ± 14.5 nM. For the same compound, the “effect on the activation of caspases 3/7” value (caspases 3/7; 0.01 μM) was “neither 114 nor 120 has an effect”, the “effect on the activation of caspases 3/7” value (caspases 3/7; 1 μM and 0.1 μM) was “strong effect” and the “effect on the activation of caspases 8” value (caspases 8) was “no effect”. For the same compound, the “effect on the activation of caspases 9” value (caspases 9) was “no effect”.
